In series [1] the target is T1, Histone deacetylase 8 (Homo sapiens, UniProt Q9BY41).
T1 sequence (Q9BY41 whole entry): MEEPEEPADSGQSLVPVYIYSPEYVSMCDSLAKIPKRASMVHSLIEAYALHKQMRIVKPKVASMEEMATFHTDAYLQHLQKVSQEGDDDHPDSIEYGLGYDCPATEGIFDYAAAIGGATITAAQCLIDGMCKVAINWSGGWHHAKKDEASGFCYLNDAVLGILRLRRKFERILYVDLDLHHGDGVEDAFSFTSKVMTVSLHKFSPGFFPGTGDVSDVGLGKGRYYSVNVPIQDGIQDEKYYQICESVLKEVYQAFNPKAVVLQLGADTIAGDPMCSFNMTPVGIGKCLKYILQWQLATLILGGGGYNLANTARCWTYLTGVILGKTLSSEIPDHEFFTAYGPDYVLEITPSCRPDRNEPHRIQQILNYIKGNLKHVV
Put plainly: Inhibition of human recombinant HDAC8 using Ac-Leu-Gly-Lys (Tfa)-AMC as substrate preincubated with compound for 10 mins followed by substrate addition and measured after 45 mins by TECAN microtiter plate reader analysis.

In series [2] the target is T2, Histone deacetylase 3 (Mus musculus) (UniProt O88895).
T2 sequence (whole entry): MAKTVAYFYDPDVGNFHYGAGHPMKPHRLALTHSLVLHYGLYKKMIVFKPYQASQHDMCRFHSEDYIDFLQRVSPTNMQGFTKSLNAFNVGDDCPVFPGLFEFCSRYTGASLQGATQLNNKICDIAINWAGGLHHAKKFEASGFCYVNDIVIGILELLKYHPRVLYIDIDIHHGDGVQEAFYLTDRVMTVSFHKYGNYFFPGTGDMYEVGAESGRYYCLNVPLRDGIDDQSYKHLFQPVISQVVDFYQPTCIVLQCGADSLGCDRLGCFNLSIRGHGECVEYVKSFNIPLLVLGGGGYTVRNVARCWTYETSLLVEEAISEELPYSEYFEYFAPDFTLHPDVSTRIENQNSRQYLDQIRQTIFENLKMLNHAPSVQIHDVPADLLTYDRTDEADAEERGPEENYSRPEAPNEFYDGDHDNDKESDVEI
Put plainly: Inhibition of HDAC3 in mouse B16-F10 cells assessed as upregulation of acetylated H3 level at 2 uM measured for 24 hrs by Western blot analysis. Type of series: cell-based.

For series [3], the target named is Programmed cell death 1 ligand 1 (Mus musculus, UniProt Q9EP73). The series can be described thus: Induction of PD-L1 degradation in mouse B16-F10 cells measured for 24 hrs by Western blot analysis. Type of series: cell-based. On the technique in general: A western blot detects proteins with antibodies after separation by electrophoresis.
Series [4] can be described thus: Clearance in Sprague-Dawley rat at 20 mg/kg, po measured up to 12 hrs by LC-MS/MS analysis. Conditions: in vivo. It is filed as ADME, organism-based.
Series [5] in a line: Metabolic stability in mouse liver microsome assessed as half life. Conditions: liver microsomes. It is filed as ADME.
Series [6] can be described thus: Half life in Sprague-Dawley rat at 20 mg/kg, po measured up to 12 hrs by LC-MS/MS analysis. It is filed as ADME, organism-based. Conditions: in vivo.
The nature of series [7]: Metabolic stability in rat liver microsome assessed as half life. It is filed as ADME. Conditions: liver microsomes. On the technique in general: Liver microsomes are vesicles of endoplasmic reticulum, rich in cytochrome P450 enzymes.
Series [8] concerns B16-F10. Put plainly: Antitumor activity against mouse B16-F10 cells implanted in C57BL/6 mouse model assessed as upregulation of Ac-H3 expression at 25 mg/kg, po administered for 9 days by Western blot analysis. It is filed as functional, organism-based. Conditions: time 9.0 day.
A short description of series [9]: Toxicity in C57BL/6 mouse implanted with mouse B16-F10 cells assessed as lung damage at 25 mg/kg, po administered for 9 days by H and E staining based analysis. It is filed as organism-based. Conditions: in vivo, 216 h, time 9 day.
The nature of series [10]: Acute toxicity in C57BL/6J mouse assessed as survival rate at 1000 mg/kg, po administered for 14 days. It is filed as organism-based. As to conditions: in vivo, time 14 day.
A short description of series [11]: Metabolic stability in rat liver microsome assessed as intrinsic clearance. It is filed as ADME. As to conditions: liver microsomes, read-out: CLH.
A short description of series [12]: Acute toxicity in po dosed C57BL/6J mouse assessed as lethal dose administered for 14 days. It is filed as organism-based. Conditions: in vivo, time 14 day.
Series [13] can be described thus: Tmax in Sprague-Dawley rat at 2 mg/kg, iv measured up to 12 hrs by LC-MS/MS analysis. Type of series: ADME, organism-based. As to conditions: in vivo.
Series [14] can be described thus: MRT (0 to infinity) in Sprague-Dawley rat at 2 mg/kg, iv measured up to 12 hrs by LC-MS/MS analysis. It is filed as ADME, organism-based. Conditions: in vivo.
Series [15] is described as follows: Clearance in Sprague-Dawley rat at 2 mg/kg, iv measured up to 12 hrs by LC-MS/MS analysis. It is filed as ADME, organism-based. Conditions: in vivo.
The nature of series [16]: Cmax in Sprague-Dawley rat at 2 mg/kg, iv measured up to 12 hrs by LC-MS/MS analysis. It is filed as ADME, organism-based. As to conditions: in vivo.
Series [17] addresses T2, Histone deacetylase 3 (Mus musculus). Put plainly: Inhibition of HDAC3 in mouse B16-F10 cells assessed as upregulation of acetylated H3 level at 1 to 2 uM measured for 24 hrs by Western blot analysis. As to conditions: dose 1-2 µM. Type of series: cell-based.
Series [18] can be described thus: Acute toxicity in C57BL/6J mouse assessed as survival rate at 500 mg/kg, po administered for 14 days. As to conditions: in vivo, time 14 day. It is filed as organism-based.
In series [19] the target is Programmed cell death 1 ligand 1 (Mus musculus) (UniProt Q9EP73). The series can be described thus: Induction of PD-L1 degradation in mouse B16-F10 cells at 10 uM measured for 24 hrs by Western blot analysis relative to control. It is filed as cell-based.
The nature of series [20]: Metabolic stability in mouse liver microsome assessed as parent compound remaining measured at 5 mins. Type of series: ADME. Conditions: liver microsomes, read-out: Stability.
Series [21] in a line: AUC (0 to t) in Sprague-Dawley rat at 20 mg/kg, po measured up to 12 hrs by LC-MS/MS analysis. It is filed as ADME, organism-based. As to conditions: in vivo.
The subject of series [22] is B16-F10. The series can be described thus: Antitumor activity against mouse B16-F10 cells implanted in C57BL/6 mouse model assessed as increase in Ac-H3 expression in tumor at 25 mg/kg, po administered for 9 days by Western blot analysis. It is filed as functional, organism-based. As to conditions: time 9.0 day.
Series [23] is described as follows: Metabolic stability in rat liver microsome assessed as parent compound remaining measured at 30 mins. Type of series: ADME. As to conditions: liver microsomes, read-out: Stability.
A short description of series [24]: Tmax in Sprague-Dawley rat at 20 mg/kg, po measured up to 12 hrs by LC-MS/MS analysis. Type of series: ADME, organism-based. Conditions: in vivo.
Series [25] can be described thus: MRT (0 to t) in Sprague-Dawley rat at 2 mg/kg, iv measured up to 12 hrs by LC-MS/MS analysis. Type of series: ADME, organism-based. Conditions: in vivo.
Series [26] in a line: MRT (0 to infinity) in Sprague-Dawley rat at 20 mg/kg, po measured up to 12 hrs by LC-MS/MS analysis. Type of series: ADME, organism-based. Conditions: in vivo.
A short description of series [27]: AUC (0 to infinity) in Sprague-Dawley rat at 20 mg/kg, po measured up to 12 hrs by LC-MS/MS analysis. Type of series: ADME, organism-based. As to conditions: in vivo.
Series [28] has as its system B16-F10. Put plainly: Antitumor activity against mouse B16-F10 cells implanted in C57BL/6 mouse model assessed as decrease in PD-L1 level at 25 mg/kg, po administered for 9 days by Western blot analysis. Type of series: functional, organism-based. As to conditions: time 9.0 day.
A short description of series [29]: Metabolic stability in mouse liver microsome assessed as parent compound remaining measured at 15 mins. Type of series: ADME. Conditions: liver microsomes, read-out: Stability.
The nature of series [30]: Metabolic stability in mouse liver microsome assessed as parent compound remaining measured at 30 mins. It is filed as ADME. As to conditions: liver microsomes, read-out: Stability.
A short description of series [31]: Toxicity in C57BL/6 mouse implanted with mouse B16-F10 cells assessed as kidney damage at 25 mg/kg, po administered for 9 days by H and E staining based analysis. Type of series: organism-based. As to conditions: in vivo, 216 h, time 9 day.
Series [32] relates to B16-F10. Put plainly: Antitumor activity against mouse B16-F10 cells implanted in C57BL/6 mouse model assessed as reduction in tumor volume at 25 mg/kg, IG administered for 9 days. It is filed as functional, organism-based. Conditions: time 9.0 day.

Activity calls are given as the source filed them. The calls are words filed in the database; no cut-off is given here.

Chain of Programmed cell death 1 ligand 1 (Mus musculus) (Q9EP73 whole entry): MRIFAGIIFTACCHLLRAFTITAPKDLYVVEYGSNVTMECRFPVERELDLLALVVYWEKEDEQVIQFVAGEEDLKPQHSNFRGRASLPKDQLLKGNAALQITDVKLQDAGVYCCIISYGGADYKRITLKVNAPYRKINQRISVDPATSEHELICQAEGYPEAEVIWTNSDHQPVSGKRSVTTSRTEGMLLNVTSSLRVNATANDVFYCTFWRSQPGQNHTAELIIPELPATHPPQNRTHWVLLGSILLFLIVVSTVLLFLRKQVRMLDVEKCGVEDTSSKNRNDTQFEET
Chain of Programmed cell death 1 ligand 1 (Q9EP73 whole entry): as above

The IC50 is the concentration at which inhibition is half-maximal. For `Nc1ccccc1NC(=O)c1ccc(-c2ncc(CNc3ccccc3)s2)cc1`, the IC50 in series [1] is over 10 µM. Moreover, the inhibition result in series [2] was “Active”.
Broadly, the DC50 is the concentration at which degradation of the target reaches its halfway point. The term CL/F denotes the apparent clearance, not corrected for the fraction that reaches the circulation. Usually half-life stands for the time in which the quantity being followed falls by half. By LD50 is commonly meant the dose expected to kill half of the subjects tested. As a reminder, the Tmax is the time at which the peak concentration occurs. In general, MRT inf refers to the average time that molecules of a dose stay in the body. The clearance is a measure of how efficiently the substance is removed, as volume per time. As a reminder, the Cmax is the maximum level reached in the sampled fluid or tissue. As a reminder, the Emax is the greatest response seen or fitted, relative to the assay's reference. By AUC(0-t) is commonly meant the area under the concentration-time curve up to a stated or last time point. Read a low AUC(0-t) as low exposure. A word on the MRT last: it is a mean duration of stay, worked out from the concentration-time curve. For orientation: AUC(0-inf) means total exposure, with the tail of the curve extrapolated. A low value points to less exposure. Turning to `CCCNNC(=O)c1ccc(CNC(=O)c2ncc(CNc3ccccc3)s2)cc1`, the 50% degradation concentration (DC50) in [3] was 5.7 µM. The same compound showed a CL/F in series [4] of 121 mL/min/kg. Besides, the half-life was 9.69 min in series [5], 216 min in series [6] and 23.7 min in series [7]. In addition, in series [1], the IC50 is over 10 µM. Moreover, the result in [8], in series [22], in series [28] and in series [32] was Active. Moreover, the Activity result in [9] and in series [31] was “Non-Toxic” throughout. For the same compound, the figures for the survival at 336 h in [10] and in series [18] were 80% and 100%, respectively. Also, the CLint scaled in [11] was determined as 107 mL/min/kg. For the same compound, in series [12], the LD50 at 336 h was over 1000 mg/kg. The Tmax in [13] was 8.4 min; in series [24] it was 30 min. Also, the MRT inf in series [14] is 33 min; in [26], 269 min. In [15], the clearance was 64.5 mL/min/kg. This compound yielded a Cmax in series [16] of 725 ng/mL. Further, the inhibition result in series [17] is “Active”. In addition, in series [19], the maximal response (Emax) was determined as 80%. For the same compound, the remaining at 5 min in series [20] worked out at 70.4%. In series [21], the AUC(0-t) at 12 h is 2740 ng·h/mL. The values for the remaining at 0.5 h in [23] and in [30] were 38.5% and 11.3%, respectively. In [25], the mean residence time MRT last at 12 h is 31.2 min. This compound also came in with an AUC(0-inf) in series [27] of 3030 ng·h/mL. Besides, the remaining at 0.25 h in [29] was determined as 31.6%.

These data come from ChEMBL document CHEMBL5523759, “Discovery of Novel HDAC3 Inhibitors with PD-L1 Downregulating/Degrading and Antitumor Immune Effects” (J Med Chem, 2024).
